Measurements reported in US9212201B2, “Antifungal and antiparasitic polyene macrolides” (priority 2010, dated 2015).
In brackets after ≈: the same amount, converted by molar mass.

How the values were obtained:
[1] = system: Other Candida species (C. lipolytica, C. sake, C. sphaerica, C. norvegica); experiment: In vitro antifungal susceptibility CLSI M27-A2 (MIC, MFC); assay type: cell-based; details: Other Candida spp. (4)
[2] = system: 14 clinical isolates: Coccidioides, Blastomyces, Histoplasma capsulatum, Paracoccidioides; assay type: cell-based; details: of 14 isolates
C. rugosa = experiment: In vitro antifungal susceptibility CLSI M27-A2 (MIC, MFC); assay type: cell-based; details: C. rugosa (2)
[3] = system: L. donovani intracellular amastigotes
C. kefyr = experiment: In vitro antifungal susceptibility CLSI M27-A2 (MIC, MFC); assay type: cell-based; details: C. kefyr (10)
C. lusitaniae = experiment: as above; assay type: cell-based; details: C. lusitaniae (10)
Epioccum spp. = experiment: In vitro antifungal susceptibility CLSI M38-A (MIC); assay type: cell-based; details: 2 isolates
Description: (§1) In addition, MFC ([…]) was done for each species. The geometric mean (GM) was calculated for each isolate using all three results. All testing was performed in triplicate to verify the reproducibility of the data.
(§2) Several of the more common molds were also tested and evaluated including five strains of Alternaria, Cladosporium, Scopulariopsis, Acremonium, and Paecilomyces. Also evaluated were some of the more uncommon fungi such as Exophilia jeanselmei (3), Emmonsia parvum (Chrysporium parvum) (2) and Epioccum spp. (2). Conventional ATCC strains of different Candida and Aspergillus species were used as controls.

[4] = system: Emmonsia parvum (Chrysporium parvum); experiment: as above; assay type: cell-based; details: 2 isolates
Description: as §1, §2

Scopulariopsis spp. = experiment: as above; assay type: cell-based; details: 5 isolates
Description: as §1, §2

Cladosporium spp. = experiment: as above; assay type: cell-based; details: 5 isolates
Description: as §1, §2

Acremonium spp. = experiment: as above; assay type: cell-based; details: 5 isolates
Description: as §1, §2

Paecilomyces spp. = experiment: as above; assay type: cell-based; details: 5 isolates
Description: as §1, §2

Alternaria spp. = experiment: as above; assay type: cell-based; details: 5 isolates
Description: as §1, §2

C. glabrata = experiment: In vitro antifungal susceptibility CLSI M27-A2 (MIC, MFC); assay type: cell-based; details: C. glabrata (10)

C[C@@H]1[C@H](O)[C@@H](C)/C=C/C=C/C=C/C=C/C=C/C=C/C=C/[C@H](O[C@@H]2O[C@H](C)[C@@H](O)[C@H](N)[C@@H]2O)C[C@@H]2O[C@](O)(C[C@@H](O)C[C@@H](O)[C@H](O)CC[C@@H](O)C[C@@H](O)CC(=O)O[C@H]1C)C[C@H](O)[C@H]2C(=O)O [Amphotericin B, amphotericin B]
GM (geometric mean MIC) [1]: 0.95 µg/mL
MFC [1]: 2 µg/mL (≈ 2.16 µM)
MIC50 [1]: 1 µg/mL (≈ 1.08 µM)
MIC Range [1]: 0.5 to 1.0 µg/mL
cases in which MFCs equaled MICs [2]: 11/14
GM (geometric mean MIC) (C. rugosa): 0.83 µg/mL
MFC (C. rugosa): 2 µg/mL (≈ 2.16 µM)
MIC Range (C. rugosa): 0.5 to 1.0 µg/mL
IC50 [3]: 50 nM
GM (geometric mean MIC) (C. kefyr): 1.25 µg/mL
MFC (C. kefyr): 1 µg/mL (≈ 1.08 µM)
MIC50 (C. kefyr): 1 µg/mL (≈ 1.08 µM)
MIC90 (C. kefyr): 2 µg/mL (≈ 2.16 µM)
MIC Range (C. kefyr): 0.12 to 2.0 µg/mL
GM (geometric mean MIC) (C. lusitaniae): 0.575 µg/mL
MFC (C. lusitaniae): 0.5 µg/mL (≈ 0.541 µM)
MIC50 (C. lusitaniae): 0.5 µg/mL (≈ 0.541 µM)
MIC90 (C. lusitaniae): 1.0 µg/mL (≈ 1.08 µM)
MIC Range (C. lusitaniae): 0.25 to 1.0 µg/mL
GM (Epioccum spp.): 1 µg/mL
MIC50 (Epioccum spp.): 1 µg/mL (≈ 1.08 µM)
MIC Range (Epioccum spp.): 1 µg/mL (≈ 1.08 µM)
GM [4]: 0.25 µg/mL
MIC50 [4]: 0.25 µg/mL (≈ 0.271 µM)
MIC Range [4]: 0.25 µg/mL (≈ 0.271 µM)
GM (Scopulariopsis spp.): 0.95 µg/mL
MIC50 (Scopulariopsis spp.): 1 µg/mL (≈ 1.08 µM)
MIC Range (Scopulariopsis spp.): 0.5 to 1 µg/mL
GM (Cladosporium spp.): 0.7 µg/mL
MIC50 (Cladosporium spp.): 0.25 µg/mL (≈ 0.271 µM)
MIC Range (Cladosporium spp.): 0.25 to 0.5 µg/mL
GM (Acremonium spp.): 8 µg/mL
MIC50 (Acremonium spp.): 8 µg/mL (≈ 8.66 µM)
MIC Range (Acremonium spp.): 8 µg/mL (≈ 8.66 µM)
GM (Paecilomyces spp.): 1.4 µg/mL
MIC50 (Paecilomyces spp.): 1 µg/mL (≈ 1.08 µM)
MIC Range (Paecilomyces spp.): 0.5 to 2 µg/mL
GM (Alternaria spp.): 0.25 µg/mL
MIC50 (Alternaria spp.): 0.25 µg/mL (≈ 0.271 µM)
MIC Range (Alternaria spp.): 0.25 to 0.5 µg/mL
GM (geometric mean MIC) (C. glabrata): 0.9 µg/mL
MFC (C. glabrata): 1 µg/mL (≈ 1.08 µM)
MIC50 (C. glabrata): 1 µg/mL (≈ 1.08 µM)
MIC90 (C. glabrata): 1 µg/mL (≈ 1.08 µM)
MIC Range (C. glabrata): 0.5 to 1.0 µg/mL
MIC50 (C. glabrata; listed as amphotericin B): 1.0 µg/mL (≈ 1.08 µM)
